Experimental findings from patent US9115127B2 (AMGEN INC., priority 2010, dated 2015) are described below.

Structures can show the parent of a compound that is named as a salt.

A word on the IC50: it is the point on the concentration scale where inhibition reaches its midpoint. High values mean lower potency, low ones higher potency.

The target in the assay is T1, wild-type human ALK (cytoplasmic domain, amino acids 1058-1620, N-terminal GST fusion) (Homo sapiens, UniProt Q9UM73).
T1 construct: The cytoplasmic domain (amino acids 1058-1620) of wild-type human ALK; GST (N); made in house; host or cells: SF9 insect cells
T1 sequence (Q9UM73 1058-1620): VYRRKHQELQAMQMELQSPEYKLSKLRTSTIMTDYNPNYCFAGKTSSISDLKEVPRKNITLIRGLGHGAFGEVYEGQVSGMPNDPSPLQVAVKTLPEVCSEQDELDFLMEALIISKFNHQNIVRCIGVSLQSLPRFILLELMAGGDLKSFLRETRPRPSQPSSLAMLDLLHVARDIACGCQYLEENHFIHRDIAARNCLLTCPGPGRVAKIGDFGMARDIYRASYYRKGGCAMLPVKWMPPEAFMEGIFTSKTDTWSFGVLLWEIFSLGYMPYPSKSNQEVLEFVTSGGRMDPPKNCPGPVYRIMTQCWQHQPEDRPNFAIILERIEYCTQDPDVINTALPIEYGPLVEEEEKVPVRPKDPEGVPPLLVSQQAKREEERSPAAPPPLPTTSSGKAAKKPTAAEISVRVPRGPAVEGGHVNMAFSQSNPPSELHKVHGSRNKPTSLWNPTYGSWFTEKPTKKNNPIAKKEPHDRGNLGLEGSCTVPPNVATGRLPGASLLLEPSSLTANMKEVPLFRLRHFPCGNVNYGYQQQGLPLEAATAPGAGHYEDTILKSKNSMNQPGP
Kind of assay: ALK Inhibition in Enzyme Assay (Lance TR-FRET kinase assay). The class given is biochemical. The essentials: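 Purified enzyme phosphorylated a biotinylated peptide substrate for 90 minutes at room temperature. Reactions were stopped with 20 mM EDTA in 50 mM Tris (pH 7.5), 100 mM NaCl, 0.05% BSA, 0.1% Tween-20. Phosphopeptide was detected by TR-FRET with SA-APC and Eu-W1024 anti-phosphotyrosine antibody PT66, excitation 320 nm.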
Consider `COC(=O)[C@H]1CC[C@@H](n2/c(=N/C(=O)c3cccc(C(F)(F)F)c3)[nH]c3ccc(CO)cc32)CC1` [Example 12, cis-Methyl 4-((E)-6-(hydroxymethyl)-2-(3-(trifluoromethyl)benzoylimino)-2,3-dihydro-1H-benzo[d]imidazol-1-yl)cyclohexanecarboxyl], for which the IC50 is 0.1 to 1 µM.
The figure for `C=CCNS(=O)(=O)c1cc(C(=O)Nc2nc3ccc(CN4CCCCC4)cc3n2[C@H]2CC[C@@H](C(=O)OC)CC2)ccc1F` [Example 33, cis-Methyl 4-(2-(3-(N-allylsulfamoyl)-4-fluorobenzamido)-6-(piperidin-1-ylmethyl)-1H-benzo[d]imidazol-1-yl)cyclohexanecarboxylate] is < 0.05 µM.
In the case of `CNC(=O)[C@H]1CC[C@H](n2/c(=N/C(=O)c3ccc(F)cc3)[nH]c3cnc(OCCN4CCCCC4)cc32)CC1` [Example 246, (E)-4-Fluoro-N-(1-(trans-4-(methylcarbamoyl)cyclohexyl)-6-(2-(piperidin-1-yl)ethoxy)-1H-imidazo[4,5-c]pyridin-2(3H)-ylidene)benzamide] it was 0.1 to 1 µM; in that of `CC(C)NC(=O)[C@H]1CC[C@@H](n2/c(=N/C(=O)c3ccncc3)[nH]c3cnc(OCCN4CCCCC4)cc32)CC1` [Example 90, (E)-N-(1-(cis-4-(Isopropylcarbamoyl)cyclohexyl)-6-(2-(piperidin-1-yl)ethoxy)-1H-imidazo[4,5-c]pyridin-2(3H)-ylidene)isonicotinamide], < 0.05 µM; in that of `CCNC(=O)[C@H]1CC[C@@H](n2/c(=N/C(=O)c3ccccc3)[nH]c3cnc(OCCN4CCCCC4)cc32)CC1` [Example 26], < 0.05 µM.
The molecule `CNc1ccc(C(=O)/N=c2\[nH]c3cnc(OCCN4CCCCC4)cc3n2[C@H]2CC[C@@H](C(=O)NC(C)C)CC2)cc1` [Example 105, (E)-N-(1-(cis-4-(Isopropylcarbamoyl)cyclohexyl)-6-(2-(piperidin-1-yl)ethoxy)-1H-imidazo[4,5-c]pyridin-2(3H)-ylidene)-4-(methylamino)benzamide] gave a 50% inhibitory concentration (IC50) of 1 to 5 µM.
In the case of `CCOC(=O)[C@H]1CC[C@@H](n2/c(=N/C(=O)c3ccccc3)[nH]c3ccc(CO)cc32)CC1` [Example 7, cis-Ethyl 4-((E)-2-(benzoylimino)-6-(hydroxymethyl)-2,3-dihydro-1H-benzo[d]imidazol-1-yl)cyclohexanecarboxylate] it was < 0.05 µM.
Take `CC(=O)N[C@H]1CC[C@H](n2/c(=N/C(=O)c3ccc(F)cc3)[nH]c3ccc(CN4CCC(C(C)(C)O)CC4)cc32)CC1` [Example 229, (E)-N-(1-(trans-4-Acetamidocyclohexyl)-6-((4-(2-hydroxypropan-2-yl)piperidin-1-yl)methyl)-1H-benzo[d]imidazol-2(3H)-ylidene)-4-fluorobenzamide]: the concentration for half-maximal inhibition (IC50) was in the range of 0.05 to 0.1 µM.
The figure for `C[C@@H]1CNCCN1C(=O)[C@H]1CC[C@@H](n2/c(=N/C(=O)c3ccc(F)cc3)[nH]c3cnc(OCCN4CCCCC4)cc32)CC1` [Example 59, (E)-4-Fluoro-N-(1-(cis-4-((R)-2-methylpiperazine-1-carbonyl)cyclohexyl)-6-(2-(piperidin-1-yl)ethoxy)-1H-imidazo[4,5-c]pyridin-2(3H)-ylidene)benzamide] is < 0.05 µM; for `CC(C)NC(=O)[C@H]1CC[C@@H](n2/c(=N/C(=O)c3ccc4ccsc4c3)[nH]c3cnc(OCCN4CCCCC4)cc32)CC1` [Example 87, (E)-N-(1-(cis-4-(Isopropylcarbamoyl)cyclohexyl)-6-(2-(piperidin-1-yl)ethoxy)-1H-imidazo[4,5-c]pyridin-2(3H)-ylidene)benzo[b]thiophene-6-carboxamide] it is 0.05 to 0.1 µM; for `CC(C)NC(=O)[C@H]1CC[C@@H](n2/c(=N/C(=O)c3ccc(F)cc3)[nH]c3ccc(CN4CCC(C)(O)CC4)cc32)CC1` [Example 183, (E)-4-Fluoro-N-(6-((4-hydroxy-4-methylpiperidin-1-yl)methyl)-1-(cis-4-(isopropylcarbamoyl)cyclohexyl)-1H-benzo[d]imidazol-2(3H)-ylidene)benzamide] it is < 0.05 µM.
The figure for `COC(=O)[C@H]1CC[C@@H](n2/c(=N/C(=O)c3ccc(F)cc3)[nH]c3ccc(CN4CCOCC4)cc32)CC1` [Example 85, cis-Methyl 4-((E)-2-(4-fluorobenzoylimino)-6-(morpholinomethyl)-2,3-dihydro-1H-benzo[d]imidazol-1-yl)cyclohexanecarboxylate] is < 0.05 µM; for `CC(C)NC(=O)[C@H]1CC[C@@H](n2/c(=N/C(=O)c3ccc(F)cc3)[nH]c3ccc(N4CCOCC4)cc32)CC1` [Example 218, (E)-4-Fluoro-N-(1-(cis-4-(isopropylcarbamoyl)cyclohexyl)-6-morpholino-1H-benzo[d]imidazol-2(3H)-ylidene)benzamide] it is < 0.05 µM; for `CC(C)NC(=O)[C@H]1CC[C@@H](n2/c(=N/C(=O)c3cccc(Cl)c3)[nH]c3cnc(OCCN4CCCCC4)cc32)CC1` [Example 119, (E)-3-Chloro-N-(1-(cis-4-(isopropylcarbamoyl)cyclohexyl)-6-(2-(piperidin-1-yl)ethoxy)-1H-imidazo[4,5-c]pyridin-2(3H)-ylidene)benzamide] it is < 0.05 µM.
In the case of `C=CCNS(=O)(=O)c1cc(C(=O)Nc2nc3ccc(CN4CCCCC4)cc3n2[C@H]2CC[C@@H](C(=O)O)CC2)ccc1F` [Example 34, cis-4-(2-(3-(N-Allylsulfamoyl)-4-fluorobenzamido)-6-(piperidin-1-ylmethyl)-1H-benzo[d]imidazol-1-yl)cyclohexanecarboxylic acid] it was 0.1 to 1 µM; in that of `CC(C)NC(=O)[C@H]1CC[C@@H](n2/c(=N/C(=O)c3cccc(F)c3)[nH]c3cnc(N4CCC(C(C)(C)O)CC4)cc32)CC1` [Example 125, (E)-3-Fluoro-N-(6-(4-(2-hydroxypropan-2-yl)piperidin-1-yl)-1-(cis-4-(isopropylcarbamoyl)cyclohexyl)-1H-imidazo[4,5-c]pyridin-2(3H)-ylidene)benzamide], < 0.05 µM.
Take `CC(C)NC(=O)[C@H]1CC[C@@H](n2/c(=N/C(=O)c3ccc(F)cc3)[nH]c3cnc(OCCCN4CCOCC4)cc32)CC1` [Example 165, (E)-4-Fluoro-N-(1-(cis-4-(isopropylcarbamoyl)cyclohexyl)-6-(3-morpholinopropoxy)-1H-imidazo[4,5-c]pyridin-2(3H)-ylidene)benzamide]: the IC50 was < 0.05 µM.
The figure for `CC(C)NC(=O)[C@H]1CC[C@@H](n2/c(=N/C(=O)c3ccc(F)cc3)[nH]c3cc(F)c(OCCN4CCOCC4)cc32)CC1` [Example 166, (E)-4-Fluoro-N-(5-fluoro-1-(cis-4-(isopropylcarbamoyl)cyclohexyl)-6-(2-morpholinoethoxy)-1H-benzo[d]imidazol-2(3H)-ylidene)benzamide] is < 0.05 µM; for `CC(C)NC(=O)[C@H]1CC[C@@H](n2/c(=N/C(=O)c3ccc(F)cc3)[nH]c3cnc(NCC(C)(C)O)cc32)CC1` [Example 226, (E)-4-Fluoro-N-(6-(2-hydroxy-2-methylpropylamino)-1-(cis-4-(isopropylcarbamoyl)cyclohexyl)-1H-imidazo[4,5-c]pyridin-2(3H)-ylidene)benzamide] it is < 0.05 µM.
In the case of `CC(C)NC(C)[C@H]1CC[C@@H](n2/c(=N/C(=O)c3cccc(F)c3)[nH]c3ccc(CN4CCC(C(C)(C)O)CC4)cc32)CC1` (stereo partly drawn) [Example 72, (E)-3-Fluoro-N-(6-((4-(2-hydroxypropan-2-yl)piperidin-1-yl)methyl)-1-(cis-4-(1-(isopropylamino)ethyl)cyclohexyl)-1H-benzo[d]imidazol-2(3H)-ylidene)benzamide] it was < 0.05 µM.
In the case of `CC(C)NC(=O)[C@H]1CC[C@@H](n2/c(=N/C(=O)c3ccc(F)cc3)[nH]c3cnc(OCCn4cncn4)cc32)CC1` [Example 164, (E)-N-(6-(2-(1H-1,2,4-Triazol-1-yl)ethoxy)-1-(cis-4-(isopropylcarbamoyl)cyclohexyl)-1H-imidazo[4,5-c]pyridin-2(3H)-ylidene)-4-fluorobenzamide] it was < 0.05 µM.
In the case of `COc1ccc(C(=O)/N=c2\[nH]c3ccc(CN4CCC(C(C)(C)O)CC4)cc3n2[C@H]2CC[C@@H](C(=O)NC(C)C)CC2)cc1` [Example 151, (E)-N-(6-((4-(2-Hydroxypropan-2-yl)piperidin-1-yl)methyl)-1-(cis-4-(isopropylcarbamoyl)cyclohexyl)-1H-benzo[d]imidazol-2(3H)-ylidene)-4-methoxybenzamide], the concentration for half-maximal inhibition (IC50) is < 0.05 µM.
For `C[C@H]1CN(C(=O)[C@H]2CC[C@@H](n3/c(=N/C(=O)c4ccc(F)cc4)[nH]c4cnc(OCCN5CCCCC5)cc43)CC2)CCN1` [Example 61, (E)-4-Fluoro-N-(1-(cis-4-((S)-3-methylpiperazine-1-carbonyl)cyclohexyl)-6-(2-(piperidin-1-yl)ethoxy)-1H-imidazo[4,5-c]pyridin-2(3H)-ylidene)benzamide], the IC50 is < 0.05 µM.
Turning to `CC(C)(O)C1CCN(Cc2ccc3[nH]/c(=N\C(=O)c4ccc(F)cc4)n([C@H]4CC[C@@H](C(=O)N5[C@@H]6CC[C@H]5CNC6)CC4)c3c2)CC1` [Example 217, (E)-N-(1-(cis-4-(3,8-Fiazabicyclo[3.2.1]octane-8-carbonyl)cyclohexyl)-6-((4-(2-hydroxypropan-2-yl)piperidin-1-yl)methyl)-1H-benzo[d]imidazol-2(3H)-ylidene)-4-fluorobenzamide dihydrochloride], the half-inhibitory concentration (IC50) was < 0.05 µM.
In the case of `CC(C)NC(=O)[C@H]1CC[C@@H](n2/c(=N/C(=O)c3ccc(C(N)=O)cc3)[nH]c3cnc(OCCN4CCCCC4)cc32)CC1` [Example 122, (E)-N-1-(1-(cis-4-(Isopropylcarbamoyl)cyclohexyl)-6-(2-(piperidin-1-yl)ethoxy)-1H-imidazo[4,5-c]pyridin-2(3H)-ylidene)terephthalamide] it was 0.1 to 1 µM.
